From PubChem BioAssay (NCI)
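Test compounds were applied to cells in 96-well plates for 48 hours at 5 doses. Abbreviation: GI50, concentration required for 50% inhibition of growth. The concentration for full growth arrest is given as TGI.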

Legend:
Assay in all cases: NCI-60 cell line screen, 48 h
SF-539 CNS = test system: SF-539 CNS
KM12 colon = test system: KM12 colon
MDA-MB-468 breast = test system: MDA-MB-468 breast
HCT-116 colon = test system: HCT-116 colon
SNB-75 CNS = test system: SNB-75 CNS
NCI-H226 lung = test system: NCI-H226 lung
T-47D breast = test system: T-47D breast
SF-268 CNS = test system: SF-268 CNS
PC-3 prostate = test system: PC-3 prostate
BT-549 breast = test system: BT-549 breast
SW-620 colon = test system: SW-620 colon
HCC-2998 colon = test system: HCC-2998 colon
UACC-62 melanoma = test system: UACC-62 melanoma
CCRF-CEM leukemia = test system: CCRF-CEM leukemia
EKVX NSCLC = test system: EKVX NSCLC
U251 CNS = test system: U251 CNS
MOLT-4 leukemia = test system: MOLT-4 leukemia
OVCAR-4 ovarian = test system: OVCAR-4 ovarian
LOX IMVI melanoma = test system: LOX IMVI melanoma
SK-MEL-2 melanoma = test system: SK-MEL-2 melanoma
OVCAR-3 ovarian = test system: OVCAR-3 ovarian
HOP-92 NSCLC = test system: HOP-92 NSCLC
M14 melanoma = test system: M14 melanoma
UO-31 renal = test system: UO-31 renal
K-562 leukemia = test system: K-562 leukemia
DU-145 prostate = test system: DU-145 prostate
IGROV1 ovarian = test system: IGROV1 ovarian
SK-MEL-28 melanoma = test system: SK-MEL-28 melanoma
COLO 205 colon = test system: COLO 205 colon
NCI-H522 lung = test system: NCI-H522 lung
SF-295 CNS = test system: SF-295 CNS
HOP-62 NSCLC = test system: HOP-62 NSCLC
786-0 renal = test system: 786-0 renal
NCI-H23 lung = test system: NCI-H23 lung
MALME-3M melanoma = test system: MALME-3M melanoma
SNB-19 CNS = test system: SNB-19 CNS
HL-60(TB) leukemia = test system: HL-60(TB) leukemia
OVCAR-8 ovarian = test system: OVCAR-8 ovarian
SK-MEL-5 melanoma = test system: SK-MEL-5 melanoma
HT29 colon = test system: HT29 colon
TK-10 renal = test system: TK-10 renal
ACHN renal = test system: ACHN renal
HCT-15 colon = test system: HCT-15 colon
SN12C renal = test system: SN12C renal
RXF 393 renal = test system: RXF 393 renal
MDA-MB-231 breast = test system: MDA-MB-231 breast
MCF7 breast = test system: MCF7 breast
SK-OV-3 ovarian = test system: SK-OV-3 ovarian
HS 578T breast = test system: HS 578T breast
CAKI-1 renal = test system: CAKI-1 renal
UACC-257 melanoma = test system: UACC-257 melanoma
MDA-MB-435 = test system: MDA-MB-435
OVCAR-5 ovarian = test system: OVCAR-5 ovarian
NCI/ADR-RES ovarian = test system: NCI/ADR-RES ovarian
A498 renal = test system: A498 renal
A549 NSCLC = test system: A549 NSCLC

O=C(NN1C(=O)/C(=C/C=C/c2ccc([N+](=O)[O-])o2)SC1=S)c1ccncc1
GI50 (SF-539 CNS): 402 nM | TGI (SF-539 CNS): 1450 nM | GI50 (KM12 colon): 1630 nM | TGI (KM12 colon): 4010 nM | GI50 (MDA-MB-468 breast): 1200 nM | TGI (MDA-MB-468 breast): 2640 nM | GI50 (HCT-116 colon): 239 nM | TGI (HCT-116 colon): 565 nM | GI50 (SNB-75 CNS): 1330 nM | TGI (SNB-75 CNS): 7000 nM | GI50 (NCI-H226 lung): 1190 nM | TGI (NCI-H226 lung): 4020 nM | GI50 (T-47D breast): 1730 nM | TGI (T-47D breast): 4160 nM | GI50 (SF-268 CNS): 1690 nM | TGI (SF-268 CNS): 3950 nM | GI50 (PC-3 prostate): 1930 nM | TGI (PC-3 prostate): 4960 nM | GI50 (BT-549 breast): 495 nM | TGI (BT-549 breast): 1660 nM | GI50 (SW-620 colon): 274 nM | TGI (SW-620 colon): 739 nM | GI50 (HCC-2998 colon): 1770 nM | TGI (HCC-2998 colon): 3190 nM | GI50 (UACC-62 melanoma): 377 nM | TGI (UACC-62 melanoma): 1450 nM | GI50 (CCRF-CEM leukemia): 346 nM | TGI (CCRF-CEM leukemia): 3570 nM | GI50 (EKVX NSCLC): 1480 nM | TGI (EKVX NSCLC): 2890 nM | GI50 (U251 CNS): 1030 nM | TGI (U251 CNS): 2660 nM | GI50 (MOLT-4 leukemia): 403 nM | TGI (MOLT-4 leukemia): 2210 nM | GI50 (OVCAR-4 ovarian): 1620 nM | TGI (OVCAR-4 ovarian): 3270 nM | GI50 (LOX IMVI melanoma): 203 nM | TGI (LOX IMVI melanoma): 440 nM | GI50 (SK-MEL-2 melanoma): 584 nM | TGI (SK-MEL-2 melanoma): 2020 nM | GI50 (OVCAR-3 ovarian): 1280 nM | TGI (OVCAR-3 ovarian): 3010 nM | GI50 (HOP-92 NSCLC): 1650 nM | TGI (HOP-92 NSCLC): 3350 nM | GI50 (M14 melanoma): 547 nM | TGI (M14 melanoma): 1930 nM | GI50 (UO-31 renal): 1160 nM | TGI (UO-31 renal): 2390 nM | GI50 (K-562 leukemia): 294 nM | TGI (K-562 leukemia): > 100000 nM | GI50 (DU-145 prostate): 1960 nM | TGI (DU-145 prostate): 4800 nM | GI50 (IGROV1 ovarian): 1390 nM | TGI (IGROV1 ovarian): 2700 nM | GI50 (SK-MEL-28 melanoma): 1540 nM | TGI (SK-MEL-28 melanoma): 2980 nM | GI50 (COLO 205 colon): 1520 nM | TGI (COLO 205 colon): 2960 nM | GI50 (NCI-H522 lung): 189 nM | TGI (NCI-H522 lung): 414 nM | GI50 (SF-295 CNS): 1760 nM | TGI (SF-295 CNS): 3270 nM | GI50 (HOP-62 NSCLC): 1580 nM | TGI (HOP-62 NSCLC): 3140 nM | GI50 (786-0 renal): 960 nM | TGI (786-0 renal): 2390 nM | GI50 (NCI-H23 lung): 1230 nM | TGI (NCI-H23 lung): 2670 nM | GI50 (MALME-3M melanoma): 240 nM | TGI (MALME-3M melanoma): 541 nM | GI50 (SNB-19 CNS): 1800 nM | TGI (SNB-19 CNS): 3930 nM | GI50 (HL-60(TB) leukemia): 1920 nM | TGI (HL-60(TB) leukemia): 4830 nM | GI50 (OVCAR-8 ovarian): 354 nM | TGI (OVCAR-8 ovarian): 3220 nM | GI50 (SK-MEL-5 melanoma): 1050 nM | TGI (SK-MEL-5 melanoma): 2240 nM | GI50 (HT29 colon): 1650 nM | TGI (HT29 colon): 3540 nM | GI50 (TK-10 renal): 1630 nM | TGI (TK-10 renal): 3030 nM | GI50 (ACHN renal): 1460 nM | TGI (ACHN renal): 2770 nM | GI50 (HCT-15 colon): 184 nM | TGI (HCT-15 colon): 404 nM | GI50 (SN12C renal): 369 nM | TGI (SN12C renal): 1620 nM | GI50 (RXF 393 renal): 1260 nM | TGI (RXF 393 renal): 2650 nM | GI50 (MDA-MB-231 breast): 655 nM | TGI (MDA-MB-231 breast): 1940 nM | GI50 (MCF7 breast): 451 nM | TGI (MCF7 breast): 2070 nM | GI50 (SK-OV-3 ovarian): 3030 nM | TGI (SK-OV-3 ovarian): 9270 nM | GI50 (HS 578T breast): 1740 nM | TGI (HS 578T breast): 8200 nM | GI50 (CAKI-1 renal): 1470 nM | TGI (CAKI-1 renal): 2820 nM | GI50 (UACC-257 melanoma): 1530 nM | TGI (UACC-257 melanoma): 3310 nM | GI50 (MDA-MB-435): 634 nM | TGI (MDA-MB-435): 2220 nM | GI50 (OVCAR-5 ovarian): 1900 nM | TGI (OVCAR-5 ovarian): 3380 nM | GI50 (NCI/ADR-RES ovarian): 1420 nM | TGI (NCI/ADR-RES ovarian): 7080 nM | GI50 (A498 renal): 17100 nM | TGI (A498 renal): 31000 nM | GI50 (A549 NSCLC): 2860 nM | TGI (A549 NSCLC): 10800 nM
